Reference: ChEMBL document CHEMBL1201862, “PubChem BioAssay data set” (2004)
Active and inactive are the calls of the source.

Key:
[1] = Luminescent dose response cell-based high throughput screening assay for inhibitors of the Janus kinase 2 mutant JAK2V617F. [Related pubchem assays: 1446 (Primary screen.), 1521 (Confirmation assay.), 1486 (Counter screen.)]; type: functional
[2] = inhibitors of intracellular T. cruzi replication, confirmation, NIH3T3 host cells, beta-gal luminescence (AID 2044); type: functional, cell-based;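 also: intracellular parasites grown in NIH/3T3 mouse fibroblasts as host cells; luminescent beta-galactosidase reporter signal from transgenic T. cruzi replicating inside host cells; inhibitors lower the luminescence signal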
[3] = molecular target: T1, DNA repair and recombination protein RAD54-like (Homo sapiens, UniProt Q92698); assay: inhibitors of human RAD54 branch migration, confirmation, biochemical, fluorescence, cherry-picked samples, dose series (AID 651657); type: functional
T1 sequence (Q92698 whole entry): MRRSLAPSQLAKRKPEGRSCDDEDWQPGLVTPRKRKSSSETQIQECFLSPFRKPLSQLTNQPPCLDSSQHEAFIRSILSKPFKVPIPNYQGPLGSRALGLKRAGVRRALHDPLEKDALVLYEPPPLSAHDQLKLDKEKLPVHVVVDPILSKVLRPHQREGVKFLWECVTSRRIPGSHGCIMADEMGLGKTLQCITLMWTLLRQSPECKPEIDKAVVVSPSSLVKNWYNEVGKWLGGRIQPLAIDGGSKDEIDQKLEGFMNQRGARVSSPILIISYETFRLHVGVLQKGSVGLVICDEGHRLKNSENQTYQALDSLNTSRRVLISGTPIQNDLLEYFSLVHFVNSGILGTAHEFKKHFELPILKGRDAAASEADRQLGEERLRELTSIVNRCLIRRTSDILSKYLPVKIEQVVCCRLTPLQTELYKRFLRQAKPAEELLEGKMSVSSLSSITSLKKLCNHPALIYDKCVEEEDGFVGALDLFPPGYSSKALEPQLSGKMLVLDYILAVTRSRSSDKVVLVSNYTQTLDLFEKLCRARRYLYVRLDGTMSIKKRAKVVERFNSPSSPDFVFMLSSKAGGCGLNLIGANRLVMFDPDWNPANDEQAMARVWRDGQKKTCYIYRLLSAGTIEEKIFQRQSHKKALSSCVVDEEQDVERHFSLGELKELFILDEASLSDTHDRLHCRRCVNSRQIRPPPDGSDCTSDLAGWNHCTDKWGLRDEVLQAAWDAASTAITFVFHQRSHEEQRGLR

[4] = molecular target: T2, Oxysterols receptor LXR-beta (Homo sapiens, UniProt P55055); type: functional, cell-based;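 also: agonist activity at LXR measured by a cell-based luminescence readout across a dose range, run as a counterscreen for daf-12 agonists; HEK293 cells with Gal4-LXR fusion and GAL4-driven luciferase reporter; potency for activation of Gal4-LXR reporter so compounds are agonists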
T2 sequence (P55055 whole entry): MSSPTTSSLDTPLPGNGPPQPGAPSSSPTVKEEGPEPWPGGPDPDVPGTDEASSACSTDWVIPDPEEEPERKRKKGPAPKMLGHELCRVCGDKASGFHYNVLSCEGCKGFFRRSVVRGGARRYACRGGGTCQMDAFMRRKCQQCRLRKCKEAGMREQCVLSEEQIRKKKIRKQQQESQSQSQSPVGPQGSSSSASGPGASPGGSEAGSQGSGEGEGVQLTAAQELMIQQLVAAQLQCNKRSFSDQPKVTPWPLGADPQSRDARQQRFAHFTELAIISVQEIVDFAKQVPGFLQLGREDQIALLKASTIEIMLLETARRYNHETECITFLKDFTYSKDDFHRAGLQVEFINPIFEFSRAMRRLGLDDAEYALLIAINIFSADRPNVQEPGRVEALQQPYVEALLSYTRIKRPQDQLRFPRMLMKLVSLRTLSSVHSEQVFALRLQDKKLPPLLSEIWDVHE

[5] = molecular target: Aryl hydrocarbon receptor (Homo sapiens, UniProt P35869); assay: Luminescence-based cell-based high throughput dose response assay for activators of the Aryl Hydrocarbon Receptor (AHR). [Related pubchem assays: 2796 (Primary screen (AHR activators in singlicate)), 2845 (Confirmation screen (AHR activators in triplicate)), 434939 (Counterscreen (PXR activators in triplicate)), 2804 (Summary (AHR activators))]; type: ADME
[6] = M. tuberculosis H37Rv growth inhibitors, H37Rv strain (AID 1626); type: functional
[7] = molecular target: 5-hydroxytryptamine receptor 1A (Homo sapiens, UniProt P08908); type: functional
Sequence of 5-hydroxytryptamine receptor 1A (P08908 whole entry): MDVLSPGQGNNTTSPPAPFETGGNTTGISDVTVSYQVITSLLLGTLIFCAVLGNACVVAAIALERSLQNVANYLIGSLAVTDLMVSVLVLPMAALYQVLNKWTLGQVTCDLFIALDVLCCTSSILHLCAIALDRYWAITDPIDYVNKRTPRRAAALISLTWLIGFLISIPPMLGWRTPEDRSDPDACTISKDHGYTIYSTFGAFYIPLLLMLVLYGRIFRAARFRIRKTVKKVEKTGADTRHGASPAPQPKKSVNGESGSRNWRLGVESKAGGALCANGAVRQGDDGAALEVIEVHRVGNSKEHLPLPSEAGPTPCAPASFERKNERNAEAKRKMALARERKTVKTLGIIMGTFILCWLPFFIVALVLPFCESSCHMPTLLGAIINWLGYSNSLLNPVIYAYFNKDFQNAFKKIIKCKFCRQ

Sequence of Aryl hydrocarbon receptor (P35869 whole entry): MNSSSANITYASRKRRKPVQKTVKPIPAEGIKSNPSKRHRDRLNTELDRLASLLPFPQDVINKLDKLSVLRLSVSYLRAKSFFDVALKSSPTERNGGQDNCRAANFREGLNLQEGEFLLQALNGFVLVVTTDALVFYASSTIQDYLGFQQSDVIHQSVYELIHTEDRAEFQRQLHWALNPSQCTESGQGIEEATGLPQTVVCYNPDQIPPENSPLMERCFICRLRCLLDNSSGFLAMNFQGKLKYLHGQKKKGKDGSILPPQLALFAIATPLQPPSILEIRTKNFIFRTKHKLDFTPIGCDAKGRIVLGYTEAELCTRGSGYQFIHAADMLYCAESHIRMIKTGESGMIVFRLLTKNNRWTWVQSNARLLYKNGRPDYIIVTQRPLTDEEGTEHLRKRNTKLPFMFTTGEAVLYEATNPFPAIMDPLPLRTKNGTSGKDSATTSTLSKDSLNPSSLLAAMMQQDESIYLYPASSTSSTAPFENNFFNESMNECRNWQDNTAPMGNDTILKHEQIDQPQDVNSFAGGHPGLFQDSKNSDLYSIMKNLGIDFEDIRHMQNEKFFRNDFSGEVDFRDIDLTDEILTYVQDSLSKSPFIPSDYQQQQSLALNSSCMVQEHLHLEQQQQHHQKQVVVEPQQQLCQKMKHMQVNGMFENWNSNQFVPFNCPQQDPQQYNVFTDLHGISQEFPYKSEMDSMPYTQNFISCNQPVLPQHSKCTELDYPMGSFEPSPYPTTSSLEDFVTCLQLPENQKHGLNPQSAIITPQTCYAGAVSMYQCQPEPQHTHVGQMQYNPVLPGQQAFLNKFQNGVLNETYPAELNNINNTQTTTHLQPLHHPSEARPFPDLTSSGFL

For CC1CCN(CCCNC(=O)c2cc3c(Cl)nc4ccccc4c3s2)CC1, the IC50 [1] was 0.96 µM (active), the EC50 [2] was 2.1 µM (active) and the AC50 [3] was 11.7 µM (active).

With Cc1ccc(Nc2ncccc2C(N)=O)cc1 the EC50 [4] was > 67.4 µM (inactive) and the EC50 [5] was 1.36 µM (active).

For O=C(Nc1nnc(-c2ccc3c(c2)OCCO3)o1)C1CCCCC1, the IC50 [6] was > 100 µM (active).

For CN1CCN(/C(=N\O)c2nonc2N)CC1, the EC50 [7] was > 50 µM (not active).
